SMILES strings stand for the structures.

For one assay, the target named is PTGER2 (EP2) (Homo sapiens (Human), UniProt P43116). Briefly: hEP2 b-arrestin assay (PathHunter HEK 293 PTGER2 b-arrestin cells). The class given is cell-based. Conditions: hEP2 b-arrestin assay (values without asterisk). From the text: (§1) The assay is using the PathHunter™ HEK 293 PTGER2 and PTGER4 b-arrestin cell lines from DiscoverX. The system is based on the Enzyme Fragment Complementation Technology. Two complementing fragments of the b-galactosidase enzyme are expressed within stably transfected cells. The larger portion of b-gal, termed EA for Enzyme Acceptor, is fused to the C-terminus of b-arrestin 2. The smaller fragment, termed ProLink™ tag, is fused to PTGER2 (EP2) or PTRGER4 (EP4) at the C-terminus. Upon activation, b-arrestin is recruited which forces the interaction of ProLink and EA, allowing complementation of the two fragments of b-gal and the formation of a functional enzyme which is capable of hydrolysing the substrate and generating a chemiluminescent signal.
Sequence of PTGER2 (EP2) (P43116 whole entry, the tested form may be a part): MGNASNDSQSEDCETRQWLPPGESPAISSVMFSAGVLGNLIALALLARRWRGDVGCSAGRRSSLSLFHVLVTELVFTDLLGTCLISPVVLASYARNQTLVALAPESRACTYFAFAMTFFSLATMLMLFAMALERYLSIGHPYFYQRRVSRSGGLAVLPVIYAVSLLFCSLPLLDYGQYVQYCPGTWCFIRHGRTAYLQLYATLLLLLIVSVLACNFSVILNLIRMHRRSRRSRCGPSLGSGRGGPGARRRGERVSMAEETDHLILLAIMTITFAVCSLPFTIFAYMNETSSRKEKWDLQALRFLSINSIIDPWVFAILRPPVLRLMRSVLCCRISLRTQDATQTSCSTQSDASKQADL
(§2) 5000 cells per well of a 384 well plate (white with white bottom Greiner 781080) are seeded in 20 ul per well of GM. Plate is incubated at 37° C., 5% C02 for 24 hours.
Plate is pre-incubated 15 minutes at 37° C. Then five microliters of PGE2 (final conc. 5 μM) are transferred into the assay plate. Plate is incubated 120 minutes at 37° C.
Twelve μl of reagent are transferred to the assay plate and incubate for 1 hour at room temperature in the dark. Luminescence counts are read on a BMG Fluostar Optima reader according to manufacturer's instructions. For each compound concentration calculate of the percentage of activity compared to DMSO control value as average±STDEV. (each concentration is measured in duplicate)

A further assay concerns the target PTRGER4 (EP4) (Homo sapiens (Human), UniProt P35408). Nature of the assay: hEP4 b-arrestin assay (PathHunter HEK 293 PTGER4 b-arrestin cells). Format: cell-based. Conditions: hEP4 b-arrestin assay (values without asterisk).
Description: as §1, §2
Plate is pre-incubated 15 minutes at 37° C. Then five microliters of PGE2 (final conc. 20 nM) are transferred into the assay plate. Plate is incubated 120 minutes at 37° C.
Twelve μl of reagent are transferred to the assay plate and incubate for 1 hour at room temperature in the dark. Luminescence counts are read on a BMG Fluostar Optima reader according to manufacturer's instructions. For each compound concentration calculate of the percentage of activity compared to DMSO control value as average±STDEV.

Sequence of PTRGER4 (EP4) (P35408 whole entry, looked up): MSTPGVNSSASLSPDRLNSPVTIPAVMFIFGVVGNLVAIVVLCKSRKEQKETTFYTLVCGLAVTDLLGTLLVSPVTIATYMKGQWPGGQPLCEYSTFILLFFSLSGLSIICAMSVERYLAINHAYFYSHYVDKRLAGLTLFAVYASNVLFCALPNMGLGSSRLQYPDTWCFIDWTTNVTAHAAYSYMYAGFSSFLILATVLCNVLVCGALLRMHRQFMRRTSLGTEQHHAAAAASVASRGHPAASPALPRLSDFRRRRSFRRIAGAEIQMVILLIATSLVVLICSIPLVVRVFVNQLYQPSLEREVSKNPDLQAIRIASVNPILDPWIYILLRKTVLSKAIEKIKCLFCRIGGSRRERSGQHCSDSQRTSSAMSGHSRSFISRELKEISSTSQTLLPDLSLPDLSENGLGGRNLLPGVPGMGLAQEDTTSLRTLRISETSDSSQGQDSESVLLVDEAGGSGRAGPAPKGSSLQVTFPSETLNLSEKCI

As for `CCOc1cc(-c2cc(NCCn3c(C#N)cc4c(OC)ccc(F)c43)ncn2)ccc1OCC(=O)O` [Example 808, (4-{6-[2-(2-Cyano-7-fluoro-4-methoxy-indol-1-yl)-ethylamino]-pyrimidin-4-yl}-2-ethoxy-phenoxy)-acetic acid], the results for the IC50 against PTGER2 (EP2) and against PTRGER4 (EP4) were 7 nM and 4 nM, respectively.

As for `CCOc1cc(-c2cc(NCCn3c(C#N)cc4c(OC)ccc(F)c43)ncn2)sc1C(=O)NS(C)(=O)=O` [Example 809, N-(5-{6-[2-(2-Cyano-7-fluoro-4-methoxy-indol-1-yl)-ethylamino]-pyrimidin-4-yl}-3-ethoxy-thiophene-2-carbonyl)-methanesulfonamide], the IC50 at PTGER2 (EP2) is 3 nM; against PTRGER4 (EP4), 6 nM.

As for `CCOc1cc(-c2cc(NCCn3c(C)cc4c(OC)ccc(F)c43)ncn2)ccc1OCC(=O)O` [Example 810, (2-Ethoxy-4-{6-[2-(7-fluoro-4-methoxy-2-methyl-indol-1-yl)-ethylamino]-pyrimidin-4-yl}-phenoxy)-acetic acid], the IC50 came to 9 nM against PTGER2 (EP2) and 28 nM on PTRGER4 (EP4).

For `CCOc1cc(-c2cc(NCCn3c(C)cc4c(OC)ccc(F)c43)ncn2)ccc1NCC(=O)O` [Example 811, (2-Ethoxy-4-{6-[2-(7-fluoro-4-methoxy-2-methyl-indol-1-yl)-ethylamino]-pyrimidin-4-yl}-phenylamino)-acetic acid], the results for the IC50 on PTGER2 (EP2) and against PTRGER4 (EP4) were 3 nM and 20 nM, respectively.

In the case of `CCOc1cc(-c2cc(NCCn3c(C)cc4c(F)ccc(C)c43)ncn2)ccc1C(=O)O` [Example 812, 2-Ethoxy-4-{6-[2-(4-fluoro-2,7-dimethyl-indol-1-yl)-ethylamino]-pyrimidin-4-yl}-benzoic acid], the IC50 was 2 nM against PTGER2 (EP2) and 976 nM against PTRGER4 (EP4).

As for `CCOc1cc(-c2cc(NCCn3c(C#N)cc4c(OC)cccc43)ncn2)sc1C(=O)O` [Example 813, 5-{6-[2-(2-Cyano-4-methoxy-indol-1-yl)-ethylamino]-pyrimidin-4-yl}-3-ethoxy-thiophene-2-carboxylic acid], the IC50 against PTGER2 (EP2) worked out at 2 nM; at PTRGER4 (EP4), 3 nM.

As for `CCOc1cc(-c2cc(NCCn3c(C#N)cc4c(OC)ccc(F)c43)ncn2)sc1C(=O)NS(=O)(=O)c1ccccc1` [Example 814, N-(5-{6-[2-(2-Cyano-7-fluoro-4-methoxy-indol-1-yl)-ethylamino]-pyrimidin-4-yl}-3-ethoxy-thiophene-2-carbonyl)-benzenesulfonamide], the IC50 against PTGER2 (EP2) worked out at 7 nM; against PTRGER4 (EP4), 2 nM.

For the molecule `CCOc1cc(-c2cc(NCCn3c(C#N)cc4c(OC)ccc(F)c43)ncn2)sc1C(=O)NS(=O)(=O)C(C)C` [Example 815, Propane-2-sulfonic acid (5-{6-[2-(2-cyano-7-fluoro-4-methoxy-indol-1-yl)-ethylamino]-pyrimidin-4-yl}-3-ethoxy-thiophene-2-carbonyl)-amide], the concentration for half-maximal inhibition (IC50) against PTGER2 (EP2) is 8 nM; against PTRGER4 (EP4), 7 nM.

Turning to `CCOc1cc(-c2cc(NCCn3c(C#N)cc4c(OC)ccc(F)c43)ncn2)sc1C(=O)NS(=O)(=O)CC` [Example 817, Ethanesulfonic acid (5-{6-[2-(2-cyano-7-fluoro-4-methoxy-indol-1-yl)-ethylamino]-pyrimidin-4-yl}-3-ethoxy-thiophene-2-carbonyl)-amide], the IC50 against PTGER2 (EP2) came out at 4 nM; against PTRGER4 (EP4) it was 5 nM.

In the case of `COc1cc(-c2cc(NCCn3c(C#N)cc4c(OC)ccc(F)c43)ncn2)ccc1-c1c[nH]cn1` [Example 818, 7-Fluoro-1-(2-{6-[4-(1H-imidazol-4-yl)-3-methoxy-phenyl]-pyrimidin-4-ylamino}-ethyl)-4-methoxy-1H-indole-2-carbonitrile], the IC50 against PTGER2 (EP2) turned out to be 2 nM; at PTRGER4 (EP4), 1 nM.

With `COc1ccc(F)c2c1cc(C#N)n2CCNc1cc(-c2ccc(-c3nc[nH]c3C)cc2)ncn1` [Example 819, 7-Fluoro-4-methoxy-1-(2-{6-[4-(5-methyl-1H-imidazol-4-yl)-phenyl]-pyrimidin-4-ylamino}-ethyl)-1H-indole-2-carbonitrile], the IC50 on PTGER2 (EP2) stood at 7 nM; against PTRGER4 (EP4), 2 nM.

With `CCOc1cc(-c2cc(NCCn3c(C#N)cc4c(OC)ccc(F)c43)ncn2)ccc1-c1noc(=O)[nH]1` [Example 820], the figures for the half-maximal inhibitory concentration (IC50) on PTGER2 (EP2) and at PTRGER4 (EP4) were 6 nM and 2 nM, respectively.

For the molecule `COc1ccc(F)c2c1cc(C#N)n2CCNc1cc(-c2ccc(-c3nc(C)[nH]c3C)cc2)ncn1` [Example 821, 1-(2-{6-[4-(2,5-Dimethyl-1H-imidazol-4-yl)-phenyl]-pyrimidin-4-ylamino}-ethyl)-7-fluoro-4-methoxy-1H-indole-2-carbonitrile], the half-maximal inhibitory concentration (IC50) against PTGER2 (EP2) stood at 4 nM; against PTRGER4 (EP4), 2 nM.

Regarding `CCc1cc(-c2cc(NCCn3c(C#N)cc4c(OC)ccc(F)c43)ncn2)ccc1O` [Example 822, 1-{2-[6-(3-Ethyl-4-hydroxy-phenyl)-pyrimidin-4-ylamino]-ethyl}-7-fluoro-4-methoxy-1H-indole-2-carbonitrile], the values for the IC50 on PTGER2 (EP2) and on PTRGER4 (EP4) were 6 nM and 5 nM, respectively.

For `COc1ccc(F)c2c1cc(C#N)n2CCNc1cc(-c2ccc(-c3ncn(C)c3C)cc2)ncn1` [Example 823, 1-(2-{6-[4-(1,5-Dimethyl-1H-imidazol-4-yl)-phenyl]-pyrimidin-4-ylamino}-ethyl)-7-fluoro-4-methoxy-1H-indole-2-carbonitrile], the IC50 on PTGER2 (EP2) and on PTRGER4 (EP4) was 5 nM throughout.

In the case of `COc1ccc(F)c2c1cc(C#N)n2CCNc1cc(-c2ccc(-c3cn(C)c(C)n3)cc2)ncn1` [Example 824, 1-(2-{6-[4-(1,2-Dimethyl-1H-imidazol-4-yl)-phenyl]-pyrimidin-4-ylamino}-ethyl)-7-fluoro-4-methoxy-1H-indole-2-carbonitrile], the results for the IC50 against PTGER2 (EP2) and against PTRGER4 (EP4) were 8 nM and 7 nM, respectively.

Consider `COc1ccc(F)c2c1cc(C#N)n2CCNc1cc(-c2ccc(-c3noc(=O)[nH]3)cc2)ncn1` [Example 825], for which the IC50 at PTGER2 (EP2) came out at 14 nM; against PTRGER4 (EP4), 8 nM.

Regarding `COc1cc(-c2cc(NCCn3c(C#N)cc4c(OC)ccc(F)c43)ncn2)sc1C1(O)COC1` [Example 826, 7-Fluoro-1-(2-{6-[5-(3-hydroxy-oxetan-3-yl)-4-methoxy-thiophen-2-yl]-pyrimidin-4-ylamino}-ethyl)-4-methoxy-1H-indole-2-carbonitrile], the IC50 was 13 nM against PTGER2 (EP2) and 8 nM against PTRGER4 (EP4).

Turning to `COc1ccc(F)c2c1cc(C#N)n2CCNc1cc(-c2ccc(-c3cn(C)c(C4CC4)n3)cc2)ncn1` [Example 827, 1-(2-{6-[4-(2-Cyclopropyl-1-methyl-1H-imidazol-4-yl)-phenyl]-pyrimidin-4-ylamino}-ethyl)-7-fluoro-4-methoxy-1H-indole-2-carbonitrile], the half-maximal inhibitory concentration (IC50) is 16 nM on PTGER2 (EP2) and 7 nM on PTRGER4 (EP4).

With `COc1ccc(F)c2c1cc(C#N)n2CCNc1cc(-c2ccc(OCC(=O)O)c(OC(F)(F)F)c2)ncn1` [Example 828, (4-{6-[2-(2-Cyano-7-fluoro-4-methoxy-indol-1-yl)-ethylamino]-pyrimidin-4-yl}-2-trifluoromethoxy-phenoxy)-acetic acid], the IC50 on PTGER2 (EP2) was 10 nM; against PTRGER4 (EP4) it was 11 nM.

With `COc1ccc(F)c2c1cc(C#N)n2CCNc1cc(-c2ccc(-c3cnc[nH]3)cc2)ncn1` [Example 829, 7-Fluoro-1-(2-{6-[4-(3H-imidazol-4-yl)-phenyl]-pyrimidin-4-ylamino}-ethyl)-4-methoxy-1H-indole-2-carbonitrile], the values for the IC50 against PTGER2 (EP2) and against PTRGER4 (EP4) were 15 nM and 12 nM, respectively.

Regarding `CCOc1cc(-c2cc(NCCn3c(C)cc4c(OC)ccc(F)c43)ncn2)ccc1-c1noc(=O)[nH]1` [Example 830, 3-(2-Ethoxy-4-{6-[2-(7-fluoro-4-methoxy-2-methyl-indol-1-yl)-ethylamino]-pyrimidin-4-yl}-phenyl)-[1,2,4]oxadiazol-5(4H)-one], the IC50 on PTGER2 (EP2) was 3 nM; against PTRGER4 (EP4) it was 12 nM.

As to `COc1ccc(F)c2c1cc(C#N)n2CCNc1cc(-c2ccc(-c3nc(=O)[nH]o3)cc2)ncn1` [Example 831, 7-Fluoro-1-(2-{6-[4-(3-oxo-2,3-dihydro-[1,2,4]-oxadiazol-5-yl)-phenyl]-pyrimidin-4-ylamino}-ethyl)-4-methoxy-1H-indole-2-carbonitrile], the IC50 against PTGER2 (EP2) amounted to 19 nM; at PTRGER4 (EP4), 17 nM.

With `COc1ccc(F)c2c1cc(C)n2CCNc1cc(-c2cc(OCC(F)(F)F)c(C(=O)O)s2)ncn1` [Example 832, 5-{6-[2-(7-Fluoro-4-methoxy-2-methyl-indol-1-yl)-ethylamino]-pyrimidin-4-yl}-3-(2,2,2-trifluoro-ethoxy)-thiophene-2-carboxylic acid], the values for the IC50 against PTGER2 (EP2) and against PTRGER4 (EP4) were 5 nM and 25 nM, respectively.

The values above are taken from patent publication US12011444B2, “N-substituted indole derivatives as PGE2 receptor modulators” (Idorsia Pharmaceuticals Ltd, priority 2015, dated 2024).
